Experimental data as given in the NIST ThermoML archive (doi:10.1016/j.jct.2013.02.006).
Numbers after ± are expanded uncertainties.

Assay: activity coefficient (dimensionless); of the first substance listed, at infinite dilution; xn = mol fraction of the nth substance listed
Conditions: 101 kPa, Liquid, Chromatography, x1 = 0

Row | Structure (SMILES) | activity coefficient (333.2 K) | activity coefficient (348.2 K) | activity coefficient (363.2 K)
1 | CCCCCC [hexane] + O=CN1CCOCC1 | 24.6 ± 1.7 | 21.5 ± 1.5 | 19.6 ± 1.3
2 | CO [methanol] + O=CN1CCOCC1 | 0.852 ± 0.055 | 0.847 ± 0.054 | 0.706 ± 0.047
3 | CC(C)O [propan-2-ol] + CN1CCCC1=O | 0.627 ± 0.043 | 0.639 ± 0.044 | 0.632 ± 0.044
4 | CCCO [propan-1-ol] + CN1CCCC1=O | 0.537 ± 0.039 | 0.552 ± 0.04 | 0.548 ± 0.04
5 | c1ccccc1 [benzene] + CN1CCCC1=O | 1.1 ± 0.07 | 1.14 ± 0.07 | 1.1 ± 0.07
6 | C1CCCC1 [cyclopentane] + CN1CCCC1=O | 5.16 ± 0.35 | 4.68 ± 0.32 | 4.55 ± 0.31
7 | CCO [ethanol] + CN1CCCC1=O | 0.606 ± 0.042 | 0.605 ± 0.042 | 0.618 ± 0.043
8 | CCO [ethanol] + O=CN1CCOCC1 | 1.2 ± 0.077 | 1.14 ± 0.073 | 0.914 ± 0.058
9 | CCCCC [pentane] + O=CN1CCOCC1 | 19.2 ± 1.3 | 17.3 ± 1.2 | 15.3 ± 1
10 | Cc1ccccc1 [toluene] + CN1CCCC1=O | 1.39 ± 0.09 | 1.35 ± 0.09 | 1.42 ± 0.09
11 | Cc1ccccc1 [toluene] + O=CN1CCOCC1 | 2.71 ± 0.18 | 4.04 ± 1.5 | 2.55 ± 0.17
12 | CCCO [propan-1-ol] + O=CN1CCOCC1 | 1.25 ± 0.08 | 1.15 ± 0.073 | 0.913 ± 0.058
13 | CCCCC [pentane] + CN1CCCC1=O | 8.32 ± 0.57 | 8.11 ± 0.55 | 7.54 ± 0.51
14 | C#CCCC [1-pentyne] + CN1CCCC1=O | 1.27 ± 0.08 | 1.41 ± 0.09 | 1.63 ± 0.11
15 | C#CCCCC [1-hexyne] + CN1CCCC1=O | 1.47 ± 0.1 | 1.57 ± 0.1 | 1.77 ± 0.12
16 | C1CCCCCC1 [cycloheptane] + O=CN1CCOCC1 | 15.4 ± 1.1 | 12.7 ± 0.87 | 10.5 ± 0.71

Row | Structure (SMILES) | activity coefficient (333.2 K) | activity coefficient (348.2 K) | activity coefficient (363.2 K)
17 | CO [methanol] + CN1CCCC1=O | 0.482 ± 0.037 | 0.556 ± 0.04 | 0.511 ± 0.038
18 | C1CCCCCCC1 [cyclooctane] + CN1CCCC1=O | 8.23 ± 0.56 | 7.62 ± 0.52 | 6.06 ± 0.41
19 | C#CCCC [1-pentyne] + O=CN1CCOCC1 | 2.56 ± 0.17 | 2.58 ± 0.18 | 2.38 ± 0.16
20 | C#CCCCC [1-hexyne] + O=CN1CCOCC1 | 3.25 ± 0.22 | 3.19 ± 0.22 | 2.78 ± 0.19
21 | CCc1ccccc1 [ethylbenzene] + O=CN1CCOCC1 | 3.46 ± 0.24 | 3.41 ± 0.23 | 3.21 ± 0.22
22 | C1CCCCC1 [cyclohexane] + O=CN1CCOCC1 | 13.8 ± 0.94 | 12.3 ± 0.84 | 11 ± 1
23 | CC(C)O [propan-2-ol] + O=CN1CCOCC1 | 1.46 ± 0.1 | 1.29 ± 0.083 | 0.933 ± 0.059
24 | c1ccccc1 [benzene] + O=CN1CCOCC1 | 1.91 ± 0.13 | 1.82 ± 0.12 | 1.81 ± 0.12
25 | CCCCCC [hexane] + CN1CCCC1=O | 9.51 ± 0.65 | 9.19 ± 0.63 | 8.51 ± 0.58
26 | C1CCCCCC1 [cycloheptane] + CN1CCCC1=O | 7.51 ± 0.51 | 6.71 ± 0.46 | 6.8 ± 0.46
27 | CCc1ccccc1 [ethylbenzene] + CN1CCCC1=O | 1.73 ± 0.12 | 1.83 ± 0.12 | 1.61 ± 0.11
28 | C1CCCCCCC1 [cyclooctane] + O=CN1CCOCC1 | 17.7 ± 1.2 | 14.5 ± 0.99 | 11.9 ± 0.81
29 | C#CCCCCC [1-heptyne] + CN1CCCC1=O | 1.72 ± 0.12 | 1.79 ± 0.12 | 1.92 ± 0.13
30 | C1CCCCC1 [cyclohexane] + CN1CCCC1=O | 6.32 ± 0.43 | 5.83 ± 0.4 | 5.41 ± 0.37
31 | C#CCCCCC [1-heptyne] + O=CN1CCOCC1 | 3.85 ± 0.26 | 3.83 ± 0.26 | 3.68 ± 0.25
32 | C1CCCC1 [cyclopentane] + O=CN1CCOCC1 | 10.2 ± 0.7 | 8.75 ± 0.6 | 7.59 ± 0.52

Other lines, results leading:

Row | activity coefficient (333.2 K) | activity coefficient (348.2 K) | activity coefficient (363.2 K) | Structure (SMILES)
33 | 13.5 ± 0.92 | 11.6 ± 0.79 | 10.5 ± 0.72 | C=CCCCC [hex-1-ene] + O=CN1CCOCC1
34 | 2.07 ± 0.14 | 2.15 ± 0.15 | 2.16 ± 0.15 | C#CCCCCCC [1-octyne] + CN1CCCC1=O
35 | 9.97 ± 0.68 | 9.43 ± 0.64 | 8.61 ± 0.59 | C=CCCC [1-pentene] + O=CN1CCOCC1
36 | 5.51 ± 0.38 | 5.44 ± 0.37 | 5.57 ± 0.38 | C=CCCCC [hex-1-ene] + CN1CCCC1=O
37 | 39.5 ± 2.7 | 34.3 ± 2.4 | 30.6 ± 2.1 | CCCCCCCC [octane] + O=CN1CCOCC1
38 | 8.39 ± 0.57 | 7.6 ± 0.52 | 6.7 ± 0.46 | C=CCCCCCC [oct-1-ene] + CN1CCCC1=O
39 | 11.4 ± 0.78 | 10.7 ± 0.73 | 10 ± 0.68 | CCCCCCC [heptane] + CN1CCCC1=O
40 | 16 ± 1.1 | 14.6 ± 1 | 13.3 ± 0.91 | C=CCCCCC [1-heptene] + O=CN1CCOCC1
41 | 6.37 ± 0.43 | 6.24 ± 0.43 | 6.28 ± 0.43 | C=CCCCCC [1-heptene] + CN1CCCC1=O
42 | 20.5 ± 1.4 | 18.4 ± 1.3 | 16.7 ± 1.1 | C=CCCCCCC [oct-1-ene] + O=CN1CCOCC1
43 | 4.75 ± 0.32 | 4.84 ± 0.33 | 4.99 ± 0.34 | C=CCCC [1-pentene] + CN1CCCC1=O
44 | 31.3 ± 2.1 | 27.5 ± 1.9 | 25.9 ± 1.8 | CCCCCCC [heptane] + O=CN1CCOCC1
45 | 5.15 ± 0.35 | 4.9 ± 0.3 | 4.65 ± 0.32 | C#CCCCCCC [1-octyne] + O=CN1CCOCC1
46 | 13.8 ± 0.94 | 13.2 ± 0.9 | 10.6 ± 0.72 | CCCCCCCC [octane] + CN1CCCC1=O
47 | 16.7 ± 1.1 | 14.9 ± 1 | 12 ± 0.82 | CCCCCCCCC [nonane] + CN1CCCC1=O
48 | 50.2 ± 3.4 | 43.5 ± 3 | 38.2 ± 2.6 | CCCCCCCCC [nonane] + O=CN1CCOCC1
